Data: patent US5760087A, “Glycylanilide derivatives, their preparation and their application in therapy” (Pierre Fabre Medicament, priority 1995, dated 1998)

Experiments:
[1] = test system: hepatic microsomal lipids (rat liver microsomes); assay: Antioxidant activity: chemical peroxidation of rat liver microsomes (T.BARS); type: biochemical; details: Fe3+/ADP/dihydroxyfumaric acid
Description: In the presence of Fe^3+ and ADP, dihydroxyfumaric acid undergoes an autoxidation which generates oxygen free radicals. The latter bring about the peroxidation of hepatic microsomal lipids.

Human LDL = assay: Antioxidant activity: oxidation of LDL by CuSO4 (T.BARS); type: biochemical; details: 4.5 μM CuSO4, 6 hours incubation, T.BARS at 532 nm
plasma cholesterol = assay: Hypocholesterolemic activity in rats on hypercholesterolemic diet; type: in vivo; details: Rattus norvegicus; male rats, oral, 4 days, Altromin C 1061 hypercholesterolemic diet; plasma cholesterol on day 5 after 16 h fast; read-out: ED50 (dose which reduces the plasma cholesterol concentration by half relative to control animals)
Protocol: 2) Hypocholesterolemic Activity
Male rats (160-180 g) are subjected for 4 days to an Altromin C 1061 hypercholesterolemic diet, and concomitantly treated orally with the compounds suspended in carboxymethylcellulose at a concentration of 1%.
On day 5, the animals, fasted for 16 hours, are anesthetized with ethyl ether and exsanguinated by drawing blood at the abdominal aorta onto EDTA.
The blood is immediately centrifuged and the plasma stored at 4° C.
Plasma cholesterol is then assayed by the CHOP-PAP method (Boehringer-Mannheim Ref. 237574).
The median effective dose (ED50) corresponds to the dose which reduces the plasma cholesterol concentration by half relative to control animals.

[2] = target: ACAT (acyl-CoA:cholesterol O-acyltransferase enzyme); assay: Inhibition of ACAT in vitro (technique of H. Chautan et al.); type: biochemical; details: read-out: IC50 (50% inhibitory concentration), ACAT inhibition
Description: The compounds were studied for their inhibitory effect on ACAT and hypocholesterolemic effect in rats on the one hand and for their antioxidant effect on the other hand.

Row | SMILES | IC50 [1] [µM] | IC50 (Human LDL) [µM] | ED50 (plasma cholesterol) [mg/kg] | IC50 [2] [µM]
1 | CCCCCCCCCCC(C)(C)C(=O)Nc1c(OC)cc(OC)cc1OC [CI 976, reference compound] | > 10 | 100 | 7.2 | –
2 | CCCCCCCCCCCCSC(C)C(=O)NCC(=O)Nc1cc(C)c(O)c(C)c1C (centres unmarked) [Compound 1, N-(2-n-dodecylthio)propionamido-2',3',5'-trimethyl-4'-hydroxyglycylanilide] | 3 | 5 | 1 | 1.2
3 | CCCCCCCCCCCCC(C)(C)C(=O)NCC(=O)Nc1cc(C)c(O)c(C)c1C [Compound 2, N-(α,α,-dimethyl)tetradecanamido-2',3',5'-trimethyl-4'-hydroxyglycylanilide] | 0.5 | 1 | 3 | 0.74
4 | CCCCCCCCCCCCSC(C)(C)C(=O)N(C)CC(=O)Nc1cc(C)c(O)c(C)c1C [Compound 3, N-methyl-N-(α-n-dodecylthio)isobutyramido-2',3',5'-trimethyl-4'-hydroxyglycylanilide] | 0.5 | 5 | < 2.5 | 0.16
5 | CCCCCCCCCCCCSC(C)(C)C(=O)NCC(=O)Nc1cc(C)c(O)c(C)c1C [Compound 5, N-(α-n-dodecylthio)isobutyramido-2',3',5'-trimethyl-4'-hydroxyglycylanilide] | 0.3 | 3 | 2.5 | 0.62
6 | CCCCCCCCCCCCSC(C)C(=O)N(C)CC(=O)Nc1cc(C)c(O)c(C)c1C (stereo not drawn) [Compound 8, N-methyl-N-(α-n-dodecylthio)propionamido-2',3',5'-trimethyl-4'-hydroxyglycylanilide] | 0.5 | 3 | 4 | 0.28
7 | CCCCCCCN(CCCCCSc1nc(-c2ccccc2)c(-c2ccccc2)[nH]1)C(=O)Nc1ccc(F)cc1F [DUP 128, reference compound] | > 10 | 30 | 1.4 | –
